We go through 9 compounds from ChEMBL document CHEMBL1201862, “PubChem BioAssay data set” (2004).

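Cultured in 96-well plates, cells were exposed to test compound for 48 hours across five concentrations. Here, GI50 denotes the concentration required for 50% inhibition of growth.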 Active and inactive are the calls of the source. Rule as the data show it: active = GI50 up to about 1.1 µM and inactive = higher. Bounds are passed on as bounds.

Common to all, as to experiment: NCI-60 cell line screen, 48 h
Test [1] deals with LOX IMVI.
The subject of test [2] is HL-60.
For test [3], the system named is TK-10.
Test [4] concerns NCI-H522.
For test [5], the system named is SW-620.
Test [6] has as its system ACHN.
The subject of test [7] is HCT-15.
The subject of test [8] is A498.
The test system of test [9] is BT-549.
Test [10] concerns SN12C.
The subject of test [11] is OVCAR-8.
In test [12] the test system is COLO 205.
Test [13] concerns KM12.
Test [14] deals with Malme-3M.
Test [15] deals with OVCAR-3.
Test [16] concerns SF-295.
In test [17] the test system is SF-539.
Test [18] concerns M14.
For test [19], the system named is SK-OV-3.
For test [20], the system named is RXF 393.

`C[C@@H](c1ccccc1)n1c(N)c(-c2ccccn2)c2ccc([N+](=O)[O-])cc2c1=O`: the GI50 in test [1] was > 100 µM (inactive); in test [2], 52.4 µM (inactive); in test [3], 31.2 µM (inactive); in [4] it was 48.2 µM (inactive); in [5], > 100 µM (inactive); in [6], 56.9 µM (inactive). Moreover, the GI50 in test [7] is 86.1 µM; in [8], 18.5 µM (inactive); in [9], 44.1 µM (inactive); in test [10] it was 98.2 µM (inactive); in [11], 51.2 µM (inactive); in [12], 38.2 µM (inactive). Moreover, the GI50 in test [13] is 67.9 µM (inactive).
As to `O=C1NI(C#Cc2ccccc2)c2ccccc21`, the GI50 in test [1], in test [2], in [14], in test [3], in test [5] and in test [15] was > 100 µM (inactive) in each case. Also, the GI50 in test [16] was > 100 µM (inactive); in [7] it was above 100 µM; in [17], > 100 µM (inactive); in test [18] it was > 100 µM (inactive); in test [8], > 100 µM (inactive); in test [9] it was > 100 µM (inactive). The GI50 in test [10] is > 100 µM (inactive); in test [11] it was > 100 µM (inactive); in test [19], 1.32 µM (inactive); in [12], 29.7 µM (inactive); in test [13], 95.1 µM (inactive).
For `COc1ccc2c(=O)c(-c3cc4c(cc3OC)OCO4)coc2c1`, the GI50 in test [1] was > 100 µM (inactive); in [2], > 100 µM (inactive); in [3], 56.1 µM (inactive); in test [4], > 100 µM (inactive); in [5], > 100 µM (inactive); in test [6], 43.7 µM (inactive). Besides, the GI50 in test [15] was > 100 µM (inactive); in [16], 37.7 µM (inactive); in test [7], above 100 µM; in test [17], > 100 µM (inactive); in test [18] it was > 100 µM (inactive); in test [8], > 100 µM (inactive). Besides, the GI50 in test [9] was > 100 µM (inactive); in test [10] it was > 100 µM (inactive); in [11], 55.2 µM (inactive); in test [19], > 100 µM (inactive); in [12], > 100 µM (inactive); in test [13], > 100 µM (inactive).
Turning to `Cc1nn(C(=O)Cc2ccccc2)c2c1C(c1ccccc1O)SC(=N)N2` (centres undefined), the GI50 in [1], in test [2], in test [14], in test [3], in [4] and in test [5] was > 100 µM (inactive) in each case. For the same compound, the GI50 was > 100 µM (inactive) in test [6]; > 100 µM (inactive) in test [16]; above 100 µM in test [7]; > 100 µM (inactive) in [17]; > 100 µM (inactive) in test [18]; > 100 µM (inactive) in test [8]. The GI50 in [9], in test [10], in test [11], in test [19], in test [12] and in test [13] was > 100 µM (inactive) each time.
Turning to `CCc1n[nH]c(=O)n1N`, the GI50 in test [1], in [2], in [14], in test [3], in test [4] and in test [5] was > 100 µM (inactive) each time. Moreover, the GI50 in [6] was > 100 µM (inactive); in test [15] it was > 100 µM (inactive); in test [16] it was > 100 µM (inactive); in [7], above 100 µM; in test [17] it was > 100 µM (inactive); in test [18], > 100 µM (inactive). For the same compound, the GI50 in test [8], in [9], in test [10], in [11], in [19] and in [12] was > 100 µM (inactive) in each case. The GI50 in [13] was > 100 µM (inactive).
With `COc1cc(/C=C2/C[C@H]3[C@@H]4CCC5=CC(=O)CC[C@]5(C)[C@H]4CC[C@]3(C)NC2=O)cc(OC)c1OC`, the GI50 was 13.2 µM (inactive) in test [2]; 26.7 µM (inactive) in test [14]; 16.2 µM (inactive) in test [3]; 12.5 µM (inactive) in test [20]; 14.1 µM (inactive) in test [4]; 36.7 µM (inactive) in test [5]. In addition, the GI50 in [6] was 26.4 µM (inactive); in [15], 43.7 µM (inactive); in test [16] it was 20 µM (inactive); in test [7], 21.5 µM; in [18], 27.4 µM (inactive); in test [8], 11.6 µM (inactive). Besides, the GI50 in test [9] is 21.6 µM (inactive); in test [10], 22.1 µM (inactive); in test [11], 23.7 µM (inactive); in test [19], 30.7 µM (inactive); in [12], 18.5 µM (inactive); in [13], 26.7 µM (inactive).
Regarding `CC1(C)CN=C(c2ccc3ccccc3c2O)N1`, the GI50 in test [1] is > 100 µM (inactive); in [2] it was > 100 µM (inactive); in [3] it was > 100 µM (inactive); in test [5], > 100 µM (inactive); in test [6], > 100 µM (inactive); in test [15] it was 22.2 µM (inactive). Further, the GI50 was 2.27 µM (inactive) in test [16]; above 100 µM in [7]; > 100 µM (inactive) in [17]; > 100 µM (inactive) in test [18]; > 100 µM (inactive) in test [8]; > 100 µM (inactive) in [9]. Further, the GI50 in test [10], in test [12] and in test [13] was > 100 µM (inactive) in each case.
`NCCCNCCCCN1CCOC1=O`: the GI50 in test [1], in [2], in test [14], in test [3], in test [4] and in test [5] was > 100 µM (inactive) in each case. In addition, the GI50 was > 100 µM (inactive) in test [6]; > 100 µM (inactive) in test [15]; > 100 µM (inactive) in test [16]; above 100 µM in [7]; > 100 µM (inactive) in [17]; > 100 µM (inactive) in test [18]. Further, the GI50 in test [8], in test [9], in test [10], in test [11], in test [19] and in [12] was > 100 µM (inactive) throughout. The GI50 in test [13] is > 100 µM (inactive).
For `Cc1cc2nn(C3CCCCO3)nc2cc1C` (centres undefined), the GI50 in test [14], in test [3], in test [20], in [4], in [6] and in test [15] was > 100 µM (inactive) in each case. The GI50 in [16] was > 100 µM (inactive); in [7] it was above 100 µM; in test [17], > 100 µM (inactive); in test [18], > 100 µM (inactive); in test [8], 60.4 µM (inactive); in test [9], > 100 µM (inactive). In addition, the GI50 in test [10], in test [11], in test [19], in test [12] and in [13] was > 100 µM (inactive) each time.
